Test results as given in US9422254B2, “Methoxyacrylate-based fungicide and methods for preparing and using the same” (priority 2008, dated 2016).
Values joined by “and” are separate entries in the source; they are usually repeats but may differ in a detail not shown here. Equal values may be shown once.

Experiments:
[1] = Acute toxicity test on zebra fish; conditions: in vivo
Method: After acute toxicity and Ames test had been finished, environmental toxicity test was conducted following “Guideline for Environmental Safety Evaluation of Chemical Pesticides” of Agriculture Ministry of China by Shenyang Chemical Research Institute/Supervision and Test Center for Pesticide Safety Evaluation and Quality Control.

[2] = system: rabbit's eye; test: Eye stimulation test; format: in vivo
Method: (§1) The toxicological indexes of the compound were tested following the standard GB15670-1995 “Toxicological test methods of pesticides for registration” by Tongji Medical College, Huazhong University of Science and Technology.

[3] = Ames test; format: cell-based
Method: as §1

[4] = system: Cucumber gray mold (Q503001); test: In vivo micro-screening assay
Method: To further study the fungicidal spectrum of the compound of Formula (I), indoor in vivo micro-screening assay were carried out on cucumber gray mold, cucumber scab, cucumber sclerotinia rot, cucumber brown spot, pepper phytophthora blight, and rice sheath blight.
Medicament to be tested and medicament of control groups were prepared as needed in a sunny morning. Cucumber gray mold, cucumber scab, cucumber brown spot, cucumber sclerotinia rot, and rice sheath blight were medicated by spray, and after air dry, pathogens of cucumber scab and of cucumber brown spot were inoculated through spraying spore suspension respectively, pathogens of cucumber gray mold, of cucumber sclerotinia rot, and of rice sheath blight were inoculated through lawn foliage. Pepper phytophthora blight was medicated and inoculated by root-irrigation. Subsequently, all seedlings were cultured in wet environment.
After the disease of control groups were serious, spot area, disease index, and the diseased seedling rate were investigated to calculate the efficacy. Cucumber scab, cucumber brown spot, and pepper phytophthora blight were investigated by grading method. The spot extension area of cucumber gray mold and of rice sheath blight was investigated. The diseased seedling rate of cucumber sclerotinia rot was investigated. Disease index=Σ(amount of infected diseased leaves in a grade×relative value of the grade)×100/(total amount of leaves×9); Diseased seedling rate (%)=(total amount of seedlings−amount of diseased seedlings)/total amount of seedlings×100% Prevention and treatment effect (%)=(disease of control group−disease of experiment group)/disease of control group×100%

[5] = system: Alternaria solani; test: microbe, parasite or virus in culture; format: cell-based; conditions: read-out: Inhibition rate (%)
[6] = system: guinea pig skin; test: Skin sensitization test; format: in vivo
Method: as §1

[7] = system: rat; test: Acute skin test; format: in vivo; conditions: rat
Method: as §1

[8] = system: Botrytis cinerea; test: microbe, parasite or virus in culture; format: cell-based; conditions: read-out: Inhibition rate (%)
[9] = system: Pepper phytophthora blight (strain NSGP); test: In vivo micro-screening assay; set-up: species or system Phytophthora capsici; conditions: root-irrigation
Excerpt: 3. In Vivo Micro-Screening Assay

[10] = system: Sphaerotheca uliginea; test: Fungicidal activity on potted cucumber, powdery mildew; format: in vivo
Method: 1. Fungicidal Activity Assay on Potted Plants at Room Temperature
Take cucumber downy mildew and powdery mildew as examples, the assay were carried out as follows:
2) Sphaerotheca uliginea: Pathogen of Cucumber Powdery Mildew
A cucumber seedling having uniform growth status and in the true leaf stage was collected, sprayed with the compound of Formula (I), and dried in the shade for 24 hrs. Fresh spore was collected from cucumber leaves infected by Sphaerotheca uliginea, filtered with a double-layer gauze, and prepared into a suspension (1.0×10^5 cells/mL). The suspension was sprayed to the dried cucumber seedling. Subsequently, the inoculated seedling was dried naturally and cultured under light in a thermostatic chamber (21-23° C.). 7-8 days later, compared with the blank control, the disease of the cucumber seedlings was graded. Based on the resultant disease index, the efficacy was calculated.
The grading standard follows “Guidelines on efficacy evaluation of pesticides”, and the efficacy is calculated on the basis of the disease index.

[11] = system: Helminthosporium torulosum; test: microbe, parasite or virus in culture; format: cell-based; conditions: Corynespora torulosa, read-out: Inhibition rate (%)
[12] = target: succinate-cytochrome C oxidase (SCO) (Sus scrofa, UniProt P24964); test: Enzyme activity test, SCO; format: biochemical; conditions: azoxystrobin as control agent
Method: Take NADH oxidase (NOX), succinate-cytochrome C oxidase (SCO), and Complex III as target enzymes, the inhibitory activity of the compound of Formula (I) was tested.
^a NOX is generally used to detect an inhibitor of Complex I and Complex III; SCO is generally used to detect an inhibitor of Complex II and Complex III. Thus, an inhibitor of Complex III should have inhibitory activity on the two enzymes.

[13] = system: cucumber powdery mildew; test: Field efficacy trial of emulsifier concentrate 1, cucumber powdery mildew; format: in vivo
Method: To a beaker (1000 mL), 50 g (100% basis) of the compound of Formula (I), 150 g of DMF, and 50 g of acetone were added and stirred for dissolution. To the solution, 25 g of pesticide emulsifier No. 500 and 50 g of Tween 80, 20 g of epoxidized soybean oil, and […] of toluene were added. Thus, the emulsifier concentrate 1 having 5 wt. % of the compound of Formula (I) was obtained and further packed.
On the basis of indoor activity evaluation, field efficacy trials of the compound of Formula (I) on cucumber downy mildew, cucumber powdery mildew, and melon powdery mildew were conducted.

succinate-cytochrome C oxidase (SCO), sequence (P24964 whole entry): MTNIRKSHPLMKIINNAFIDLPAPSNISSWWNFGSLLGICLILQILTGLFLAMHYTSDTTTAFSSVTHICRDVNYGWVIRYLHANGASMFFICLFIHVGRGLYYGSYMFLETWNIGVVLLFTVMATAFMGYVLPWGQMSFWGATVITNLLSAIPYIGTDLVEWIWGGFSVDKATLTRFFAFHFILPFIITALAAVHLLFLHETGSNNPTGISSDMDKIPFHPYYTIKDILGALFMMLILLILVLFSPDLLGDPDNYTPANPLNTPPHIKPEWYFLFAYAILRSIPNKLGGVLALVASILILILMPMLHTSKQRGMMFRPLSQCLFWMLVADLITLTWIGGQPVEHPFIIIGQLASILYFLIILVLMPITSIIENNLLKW

SMILES: CO/C=C(/C(=O)OC)c1ccccc1CSc1nc2cc(OC)ccc2s1 [Compound of Formula (I), (E)-methyl 3-methoxy-2-(2-((5-methoxy-benzothiazol-2-ylthio)methyl)phenyl)acrylate]
- LC50 at 24 h ([1]; 24 hrs): 0.069 µg/mL
- LC50 at 48 h ([1]; 48 hrs): 0.06 µg/mL
- LC50 at 72 h ([1]; 72 hrs): 0.047 µg/mL
- LC50 at 96 h ([1]; 96 hrs): 0.043 µg/mL
- Eye stimulation [2]: Mild stimulation on rabbit's eye
- Ames test [3]: Negative
- Efficacy (%) ([4]; 100 mg/L): 93.69%
- Spot area (mm^2) ([4]; 100 mg/L): 7.78 mm^2
- Efficacy (%) ([4]; 500 mg/L): 97.71%
- Spot area (mm^2) ([4]; 500 mg/L): 2.82 mm^2
- inhibition at 0.3 µg/mL ([5]; 0.3 mg/L): 32.4%
- inhibition at 3 µg/mL ([5]; 3 mg/L): 39.2%
- inhibition at 30 µg/mL ([5]; 30 mg/L): 43.9%
- Skin sensitization [6]: Weak allergen (grade I) on guinea
- Toxicity (acute skin test) [7]: Low toxicity
- inhibition at 0.3 µg/mL ([8]; 0.3 mg/L): 42.3%
- inhibition at 3 µg/mL ([8]; 3 mg/L): 42.7%
- inhibition at 30 µg/mL ([8]; 30 mg/L): 54.9%
- Efficacy (%) ([9]; 100 mg/L): 26.22%
- Spot area (mm^2) ([9]; 100 mg/L): 25.33 mm^2
- Efficacy (%) ([9]; 500 mg/L): 30.09%
- Spot area (mm^2) ([9]; 500 mg/L): 24 mm^2
- Efficacy (%) ([10]; 3.125 mg/L, secondary screening): 85.24%
- Efficacy (%) ([10]; 6.25 mg/L, secondary screening): 97.22%
- Efficacy (%) ([10]; 12.5 mg/L, Table 1): 97.22%
- Efficacy (%) ([10]; 12.5 mg/L, secondary screening): 98.50%
- Efficacy (%) ([10]; 25 mg/L, Table 1): 100%
- Efficacy (%) ([10]; 25 mg/L, secondary screening): 100%
- Efficacy (%) ([10]; 50 mg/L, Table 1): 100%
- Efficacy (%) ([10]; 50 mg/L, secondary screening): 100%
- Efficacy (%) ([10]; 100 mg/L, Table 1): 100%
- Efficacy (%) ([10]; 200 mg/L, Table 1): 100%
- preventive effect ([10]; powdery mildew): good preventive effect
- EC50 ([10]; secondary screening): 0.96 µg/mL
- EC90 ([10]; secondary screening): 3.87 µg/mL
- inhibition at 0.3 µg/mL ([11]; 0.3 mg/L): 11.3%
- inhibition at 3 µg/mL ([11]; 3 mg/L): 18.4%
- inhibition at 30 µg/mL ([11]; 30 mg/L): 21.4%
- inhibitory activity on SCO compared with azoxystrobin [12]: much higher inhibitory activity
- Disease index (%) ([13]; 12.5 mg/L, 7th day, Average): 5.9%
- Efficacy (%) ([13]; 12.5 mg/L, 7th day, Average): 70.50%
- Disease index (%) ([13]; 12.5 mg/L, 7th day, No. 1-4): 5.5% and 6.7% and 5.8%
- Efficacy (%) ([13]; 12.5 mg/L, 7th day, No. 1-4): 71.05% and 70.59% and 71.54% and 69.71%
- Disease index (%) ([13]; 12.5 mg/L, 14th day, Average): 6.8%
- Efficacy (%) ([13]; 12.5 mg/L, 14th day, Average): 75.66%
- Disease index (%) ([13]; 12.5 mg/L, 14th day, No. 1-4): 6.4% and 6.3% and 7.8% and 6.6%
- Efficacy (%) ([13]; 12.5 mg/L, 14th day, No. 1-4): 74.80% and 76.40% and 75.73% and 76.45%
- Disease index (%) ([13]; 12.5 mg/L, 21st day, Average): 12.7%
- Efficacy (%) ([13]; 12.5 mg/L, 21st day, Average): 68.91%
- Disease index (%) ([13]; 12.5 mg/L, 21st day, No. 1-4): 12.6% and 12.0% and 13.9% and 12.3%
- Efficacy (%) ([13]; 12.5 mg/L, 21st day, No. 1-4): 67.88% and 68.34% and 69.40% and 70.29%
- Disease index (%) ([13]; 25 mg/L, 7th day, Average): 3.9%
- Efficacy (%) ([13]; 25 mg/L, 7th day, Average): 77.54%
- Disease index (%) ([13]; 25 mg/L, 7th day, No. 1-4): 3.6% and 4.2% and 4.6% and 3.3%
- Efficacy (%) ([13]; 25 mg/L, 7th day, No. 1-4): 78.48% and 76.74% and 77.57% and 77.35%
- Disease index (%) ([13]; 25 mg/L, 14th day, Average): 4.0%
- Efficacy (%) ([13]; 25 mg/L, 14th day, Average): 83.51%
- Disease index (%) ([13]; 25 mg/L, 14th day, No. 1-4): 3.5% and 4.2% and 4.8%
- Efficacy (%) ([13]; 25 mg/L, 14th day, No. 1-4): 84.35% and 83.71% and 82.85% and 83.59%
- Disease index (%) ([13]; 25 mg/L, 21st day, Average): 7.0%
- Efficacy (%) ([13]; 25 mg/L, 21st day, Average): 77.78%
- Disease index (%) ([13]; 25 mg/L, 21st day, No. 1-4): 6.8% and 8.0% and 6.2%
- Disease index (%) ([13]; 50 mg/L, 7th day, Average): 2.4%
- Efficacy (%) ([13]; 50 mg/L, 7th day, Average): 85.63%
- Disease index (%) ([13]; 50 mg/L, 7th day, No. 1-4): 2.1% and 2.4% and 2.8% and 2.2%
- Efficacy (%) ([13]; 50 mg/L, 7th day, No. 1-4): 85.88% and 84.49% and 86.18% and 85.31%
- Disease index (%) ([13]; 50 mg/L, 14th day, Average): 2.1%
- Efficacy (%) ([13]; 50 mg/L, 14th day, Average): 90.99%
- Disease index (%) ([13]; 50 mg/L, 14th day, No. 1-4): 2.1% and 1.8% and 2.7% and 1.9%
- Efficacy (%) ([13]; 50 mg/L, 14th day, No. 1-4): 89.44% and 91.85% and 90.23% and 91.34%
- Disease index (%) ([13]; 50 mg/L, 21st day, Average): 3.6%
- Efficacy (%) ([13]; 50 mg/L, 21st day, Average): 89.45%
- Disease index (%) ([13]; 50 mg/L, 21st day, No. 1-4): 3.2% and 3.0% and 4.4% and 3.7%
- Efficacy (%) ([13]; 50 mg/L, 21st day, No. 1-4): 89.57% and 90.44% and 88.74% and 88.58%
- Disease index (%) ([13]; 100 mg/L, 7th day, Average): 1.5%
- Efficacy (%) ([13]; 100 mg/L, 7th day, Average): 91.67%
- Disease index (%) ([13]; 100 mg/L, 7th day, No. 1-4): 1.7% and 1.2% and 1.9%
- Efficacy (%) ([13]; 100 mg/L, 7th day, No. 1-4): 91.17% and 92.74% and 90.16% and 92.41%
- Disease index (%) ([13]; 100 mg/L, 14th day, Average): 1.2%
- Efficacy (%) ([13]; 100 mg/L, 14th day, Average): 95.23%
- Disease index (%) ([13]; 100 mg/L, 14th day, No. 1-4): 0.9% and 1.3% and 1.4% and 1.0%
- Efficacy (%) ([13]; 100 mg/L, 14th day, No. 1-4): 96.46% and 94.43% and 95.18% and 95.68%
- Disease index (%) ([13]; 100 mg/L, 21st day, Average): 2.9%
- Efficacy (%) ([13]; 100 mg/L, 21st day, Average): 91.52%
- Disease index (%) ([13]; 100 mg/L, 21st day, No. 1-4): 3.3% and 2.6% and 2.8% and 3.0%
- Efficacy (%) ([13]; 100 mg/L, 21st day, No. 1-4): 91.58% and 92.15% and 93.17% and 91.23%
